What all share (type): cell-based, mouse
One assay deals with Raw264.7. As to the kind of experiment: RANKL-induced osteoclast differentiation of Raw264.7 cells (TRAP activity and staining). The note with it: for TRAP activity: listed as Pyk2 inhibitor. The procedure: FIGS. 8A-8F. Effect of Pyk2 inhibition on RANKL induced osteoclast differentiation. FIG. 8A: Schematic depicting the experimental design for testing the effect of Pyk2 inhibition on RANKL-induced osteoclast differentiation. On day 1, Raw264.7 macrophages are pretreated with Pyk2 inhibitor and then treated on day 2 with fresh culture medium comprising 100 ng/mL RANKL to stimulate differentiation to osteoclasts. The quantity of mature, differentiated osteoclasts is measured by tartrate-resistant acid […] (TRAP) activity on day 6. FIG. 8B: TRAP activity of mature, differentiated osteoclasts treated as described in FIG. 8A. […] FIG. 8C: Phase-contrast microscope images of TRAP-stained osteoclasts, treated as described in FIG. 8A, at ×20 magnification. FIG. 8D: Schematic depicting the experimental design for testing the effect of Pyk2 inhibition on RANKL-induced osteoclast differentiation. On day 2, Raw264.7 macrophages are treated with fresh culture medium comprising 100 ng/mL RANKL to stimulate differentiation to osteoclasts, then are subsequently treated on day 3 with Pyk2 inhibitor. FIG. 8E: TRAP activity of mature, differentiated osteoclasts treated as described in FIG. 8D. […] FIG. 8F: Phase-contrast microscope images of TRAP-stained osteoclasts, treated as described in FIG. 8D, at ×20 magnification.
To explore this question, an Abelson leukemia virus transformed monocyte/macrophage-like cell line derived from BALB/c mice, Raw264.7, was used. To induce differentiation to osteoclasts, Raw264.7 cells were treated with receptor activator of nuclear factor kappa-B ligand (RANKL), also known as osteoclast differentiation factor (ODF). Raw264.7 cells and differentiated osteoclasts were treated with Pyk2 inhibitor, as in Example 2.
Raw264.7 cells were cultured and treated with Pyk2 inhibitors after 24 hours, then differentiated into osteoclasts after 24 hours of Pyk2 inhibitor treatment (FIG. 8A). Four days after differentiation into osteoclasts, the cells were then assessed for tartrate-resistant acid phosphatase (TRAP) activity and presence, as TRAP is a biomarker expressed by mature, differentiated osteoclasts, but not undifferentiated progenitor cells.
Therefore, the effect of Pyk2 inhibition was also assessed by culturing RAW264.7 cells, differentiating into osteoclasts after 2 days, the treating with Pyk2 inhibitor for 24 hours, 1 day after differentiating (FIG. 8D). […] Therefore, Pyk2 inhibition could ultimately result in an increase in bone mass.

In assay [1] the test system is MG6 cells. Briefly: Multinucleation of MG6 microglia (DAPI, Iba1 staining). As to the method: (§1) FIGS. 4A-4E. Induction of multinucleated cells by a Pyk2 inhibitor. FIG. 4A: Microscopic images depicting the effect of a Pyk2 inhibitor on the morphology of MG6 cells. MG6 cell line is established with neonatal C57BL/6 mouse microglia that are collected from whole brain and transformed with c-myc oncogene. MG6 cells were stimulated with 100 ng/mL CSF-1 for 48 hours and then cultured for 24 hours with various concentrations of Pyk2 inhibitor: 0 nM, 100 nM, 500 nM and 1000 nM. FIG. 4B: Quantification of the effect of a Pyk2 inhibitor on the proliferation of MG6 cells. MG6 cells were stimulated with CSF-1 and cultured with various concentrations of Pyk2 inhibitor as in FIG. 4A. The baseline proliferation rate is defined as 100 ng/mL CSF-1 treatment for 48 hours. Proliferation of MG6 cells with various concertation of Pyk2 inhibitor treatment is measured using a Cell Counter Kit for 4 hours of incubation. No difference in MG6 cell proliferation is observed at the Pyk2 inhibitor concentration of 100 nM. […] FIG. 4C: Microscopic images depicting multinucleated MG6 cells with 24 hours of 1000 nM Pyk2 inhibitor treatment following 48 hours of 100 ng/mL CSF-1 treatment. […] Multinucleated cells with two or more nuclei are observed as marked with circles in the bottom image. FIG. 4D: Quantification of the proportion of multinucleated cells after 0 nM, 500 nM, and 1000 nM Pyk2 inhibitor treatment. MG6 cells were treated with Pyk2 inhibitor for 24 hours after 48 hours of 100 ng/mL CSF-1 treatment. […] FIG. 4E: Immunohistochemical staining depicting multinucleation of Pyk2 inhibitor treated microglia. MG6 cells were stained with anti-Tubulin and anti-Iba1, while nuclei were stained with DAPI. Cells were observed via confocal microscopy (×600). MG6 cells were treated without Pyk2 inhibitor (left) or with 1000 nM Pyk2 inhibitor (right) after 48 hours of 100 ng/mL CSF-1 treatment. Scale bar is 20 μm. […]
(§2) To further assess the function of Pyk2 during neurodegenerative disorders, such as AD, the effect of Pyk2 inhibition was assessed in a microglial cell line. […]

Assay [2] concerns MG6 cells. As to the kind of experiment: MG6 microglia viability, morphology and proliferation (Cell Counting Kit-8). The note with it: for MG6 cell proliferation: 24 h after CSF-1, listed as Pyk2 inhibitor. The procedure:
as §1, with “microglia.” for “microglia. MG6 cells were stained with anti-Tubulin and anti-Iba1, while nuclei were stained with DAPI. Cells were observed via confocal microscopy (×600). MG6 cells were treated without Pyk2 inhibitor (left) or with 1000 nM Pyk2 inhibitor (right) after 48 hours of 100 ng/mL CSF-1 treatment. Scale bar is 20 μm.”
as §2
Upon treatment with up to 1000 nM Pyk2 inhibitor, MG6 viability and morphology appeared to be unaffected (FIG. 4A). To assess if Pyk2 inhibition negatively affected proliferation of MG6 cells, treated and untreated cells were quantified using a Cell Counting Kit-8 (Dojindo, Japan CK104) after 4 hours of incubation.

“Also recorded” adds a separate entry of the source.

On to `CN(c1ccccc1CNc1nc(Nc2ccc3c(c2)CC(=O)N3)ncc1C(F)(F)F)S(C)(=O)=O` [PF-431396], for which the TRAP activity entry in the assay on Raw264.7 (1000 nM for 24 hours, 1 day after RANKL) is on record as “statistically significant reduction; also recorded: significantly reduced”; in the assay on Raw264.7 (inhibitor pretreatment (up to 1000 nM) before RANKL), “not statistically significant; also recorded: no significant differences”. The TRAP staining entry with Raw264.7 (inhibitor for 24 hours, 1 day after RANKL) is on record as “apparent reduction”; with Raw264.7 (inhibitor pretreatment before RANKL) it was “did not reveal any obvious difference”. Also, the “multinucleation of MG6 cells” value in the assay with MG6 cells [1] (500 nM, 24 h after 48 h CSF-1) is “insufficient to induce multinucleation”. Besides, in the assay with MG6 cells [1] (1000 nM), the “level of Iba1 in cytoplasm of multinucleated MG6 cells” value was “increased level”. Further, the “multinucleation of MG6 cells / proportion of multinucleated cells” value with MG6 cells [1] (1000 nM, 24 h after 48 h CSF-1, listed as Pyk2 inhibitor) is reported as “multinucleation of MG6 cells was observed; also recorded: significantly increased”. Also, the MG6 cell proliferation entry in the assay on MG6 cells [2] (100 nM (up to 100 nM)) is reported as “No significant change; also recorded: No difference”; in the assay with MG6 cells [2] (500 nM or 1000 nM), “slight reduction; also recorded: slightly decreased”. Further, the “MG6 viability and morphology” value in the assay with MG6 cells [2] (up to 1000 nM, 24 h after 48 h 100 ng/mL CSF-1) is “unaffected”.

Values taken from patent US20250186439A1, “PYK2 INHIBITION MODULATES IMMUNE CELL FUNCTION” (The Children's Medical Center Corporation, priority 2022, published 2025).
